Broadly, the IC50 is the concentration at which inhibition is half-maximal. Read a low IC50 as inhibition by little substance.

For data set [1], the target named is T1, Ribosomal protein S6 kinase alpha-3 (Homo sapiens, UniProt P51812). In words: Selectivity interaction (Upstate Kinase Profiler service (Millipore)) EUB0000056c RPS6KA3. Particulars: at 1 µM.
The target of data set [2] is MAP kinase-interacting serine/threonine-protein kinase 1 (Homo sapiens) (UniProt Q9BUB5). Particulars: at 10 µM.
MAP kinase-interacting serine/threonine-protein kinase 1 (Homo sapiens), sequence (Q9BUB5 whole entry, looked up): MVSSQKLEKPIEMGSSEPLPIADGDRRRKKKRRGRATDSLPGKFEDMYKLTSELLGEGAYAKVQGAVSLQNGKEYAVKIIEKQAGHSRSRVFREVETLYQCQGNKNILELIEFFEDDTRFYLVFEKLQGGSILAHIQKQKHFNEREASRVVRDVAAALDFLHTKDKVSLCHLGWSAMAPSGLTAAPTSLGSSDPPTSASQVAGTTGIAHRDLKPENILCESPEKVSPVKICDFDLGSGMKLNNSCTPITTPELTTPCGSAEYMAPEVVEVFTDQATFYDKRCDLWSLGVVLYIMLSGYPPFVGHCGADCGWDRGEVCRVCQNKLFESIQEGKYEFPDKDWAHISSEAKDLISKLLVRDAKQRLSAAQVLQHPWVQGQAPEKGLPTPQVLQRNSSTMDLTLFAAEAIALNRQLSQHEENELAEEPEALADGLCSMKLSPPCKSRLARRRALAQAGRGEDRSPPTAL
A short description of data set [3]: Selectivity interaction (RapidFire MS assay (using full-length mouse protein MGAT2)) EUB0001079a MGAT2.
Data set [4] concerns the target T2, Megakaryocyte-associated tyrosine-protein kinase (Homo sapiens) (UniProt P42679).
T2 sequence (whole entry): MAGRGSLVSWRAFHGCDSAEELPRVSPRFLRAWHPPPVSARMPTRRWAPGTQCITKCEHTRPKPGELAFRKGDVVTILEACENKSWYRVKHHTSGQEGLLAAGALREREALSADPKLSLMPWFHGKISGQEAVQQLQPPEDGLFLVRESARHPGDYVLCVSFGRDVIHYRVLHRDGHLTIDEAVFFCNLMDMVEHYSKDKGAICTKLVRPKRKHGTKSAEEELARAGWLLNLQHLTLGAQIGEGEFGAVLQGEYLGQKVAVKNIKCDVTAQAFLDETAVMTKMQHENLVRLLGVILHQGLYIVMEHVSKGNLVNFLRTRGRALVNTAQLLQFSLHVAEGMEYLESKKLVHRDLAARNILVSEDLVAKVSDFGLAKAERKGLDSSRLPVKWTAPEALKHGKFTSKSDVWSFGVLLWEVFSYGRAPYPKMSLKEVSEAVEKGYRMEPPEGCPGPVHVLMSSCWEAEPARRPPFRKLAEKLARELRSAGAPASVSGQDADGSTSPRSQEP
In words: Selectivity interaction (KinomeScan (DiscoverX)) EUB0001079a MATK. The conditions noted are these: at 1 µM.

For another data set, the target named is Histamine H3 receptor (Homo sapiens, UniProt Q9Y5N1). In words: Selectivity interaction (GPCR panel (PDSP screen)) EUB0001079a HRH3. The conditions noted are these: at 10 µM.
Histamine H3 receptor, sequence (Q9Y5N1 whole entry): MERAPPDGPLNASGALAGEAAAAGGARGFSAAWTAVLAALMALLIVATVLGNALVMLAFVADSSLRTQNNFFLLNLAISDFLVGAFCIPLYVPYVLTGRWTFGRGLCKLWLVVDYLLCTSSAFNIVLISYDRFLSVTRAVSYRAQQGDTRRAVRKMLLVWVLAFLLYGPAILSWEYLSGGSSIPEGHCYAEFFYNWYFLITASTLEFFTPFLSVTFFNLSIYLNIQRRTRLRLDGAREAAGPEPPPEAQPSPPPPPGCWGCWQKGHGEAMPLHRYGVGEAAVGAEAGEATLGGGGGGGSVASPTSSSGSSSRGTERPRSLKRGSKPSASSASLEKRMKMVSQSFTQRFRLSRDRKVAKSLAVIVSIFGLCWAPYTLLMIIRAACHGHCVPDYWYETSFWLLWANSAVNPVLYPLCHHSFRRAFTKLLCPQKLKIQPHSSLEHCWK
Data set [5] concerns the target T3, Rhodopsin kinase GRK1 (Homo sapiens) (UniProt Q15835).
T3 sequence (whole entry): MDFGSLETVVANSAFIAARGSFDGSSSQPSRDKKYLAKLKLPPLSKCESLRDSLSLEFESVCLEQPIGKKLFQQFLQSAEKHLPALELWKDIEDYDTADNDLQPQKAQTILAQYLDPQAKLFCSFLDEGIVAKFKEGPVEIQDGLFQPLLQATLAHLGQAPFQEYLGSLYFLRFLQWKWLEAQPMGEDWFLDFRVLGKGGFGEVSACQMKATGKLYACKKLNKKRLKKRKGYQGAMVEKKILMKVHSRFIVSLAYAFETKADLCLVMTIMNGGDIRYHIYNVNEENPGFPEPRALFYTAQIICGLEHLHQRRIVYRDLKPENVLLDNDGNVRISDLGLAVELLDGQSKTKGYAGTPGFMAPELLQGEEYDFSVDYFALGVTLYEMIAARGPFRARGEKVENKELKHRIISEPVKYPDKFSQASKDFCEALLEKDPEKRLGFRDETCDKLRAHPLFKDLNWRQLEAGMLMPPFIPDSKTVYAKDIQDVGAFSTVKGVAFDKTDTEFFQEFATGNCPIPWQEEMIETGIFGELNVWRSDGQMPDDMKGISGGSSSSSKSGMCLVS
In words: Selectivity interaction (KinomeScan (DiscoverX)) EUB0001049a GRK1. Particulars: at 1 µM.

The target in data set [6] is Serine/threonine-protein kinase 10 (Homo sapiens) (UniProt O94804). In words: Selectivity interaction (KinomeScan (DiscoverX)) EUB0000655a STK10. The conditions noted are these: at 10 µM.
Serine/threonine-protein kinase 10 (Homo sapiens), sequence (O94804 whole entry, looked up, canonical isoform): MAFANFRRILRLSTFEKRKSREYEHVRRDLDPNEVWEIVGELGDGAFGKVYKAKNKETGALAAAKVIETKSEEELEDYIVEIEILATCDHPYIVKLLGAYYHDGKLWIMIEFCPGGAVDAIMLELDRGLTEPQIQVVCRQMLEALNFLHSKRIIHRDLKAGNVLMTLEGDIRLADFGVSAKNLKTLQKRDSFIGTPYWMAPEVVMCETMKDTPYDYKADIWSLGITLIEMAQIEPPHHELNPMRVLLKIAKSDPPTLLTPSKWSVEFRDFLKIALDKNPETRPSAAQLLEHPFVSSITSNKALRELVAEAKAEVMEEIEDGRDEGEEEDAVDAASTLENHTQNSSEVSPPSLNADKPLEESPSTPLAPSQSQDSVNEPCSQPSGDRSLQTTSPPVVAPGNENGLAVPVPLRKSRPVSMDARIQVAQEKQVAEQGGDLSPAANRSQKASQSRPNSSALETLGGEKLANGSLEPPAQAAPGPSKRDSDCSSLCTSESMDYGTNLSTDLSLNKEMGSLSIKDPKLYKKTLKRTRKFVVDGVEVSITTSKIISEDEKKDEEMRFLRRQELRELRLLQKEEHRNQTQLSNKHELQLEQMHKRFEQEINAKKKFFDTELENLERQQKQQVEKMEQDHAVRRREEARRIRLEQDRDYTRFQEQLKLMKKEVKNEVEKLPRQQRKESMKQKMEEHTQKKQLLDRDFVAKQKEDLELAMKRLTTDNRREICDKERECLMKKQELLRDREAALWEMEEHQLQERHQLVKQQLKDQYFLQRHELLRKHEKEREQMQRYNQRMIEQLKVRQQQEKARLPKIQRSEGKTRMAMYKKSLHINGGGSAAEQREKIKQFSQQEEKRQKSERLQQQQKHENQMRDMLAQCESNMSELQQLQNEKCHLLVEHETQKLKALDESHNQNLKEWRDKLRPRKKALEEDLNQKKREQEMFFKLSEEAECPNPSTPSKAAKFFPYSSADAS
Data set [7] deals with T4, Casein kinase I isoform alpha-like (Homo sapiens) (UniProt Q8N752).
T4 sequence (whole entry): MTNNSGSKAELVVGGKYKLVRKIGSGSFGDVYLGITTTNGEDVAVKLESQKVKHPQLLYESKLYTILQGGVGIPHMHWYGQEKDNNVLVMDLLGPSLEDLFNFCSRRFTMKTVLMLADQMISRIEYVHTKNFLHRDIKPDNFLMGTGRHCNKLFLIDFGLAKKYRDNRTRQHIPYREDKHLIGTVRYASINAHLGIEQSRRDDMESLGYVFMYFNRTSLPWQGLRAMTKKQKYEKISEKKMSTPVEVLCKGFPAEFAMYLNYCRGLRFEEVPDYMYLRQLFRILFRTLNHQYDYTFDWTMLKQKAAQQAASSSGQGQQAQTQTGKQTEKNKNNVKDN
In words: Selectivity interaction (KinomeScan (DiscoverX)) EUB0000666a CSNK1A1L. The conditions noted are these: at 10 µM.

For data set [8], the target named is Histone-lysine N-methyltransferase SETDB1 (Homo sapiens) (UniProt Q15047). In words: Selectivity interaction (Methyltransferase screen (radiometric assays, panel of 8 PRMTs, 21 protein lysine methyltransferases, 3 DNA methyltransferases, and one RNA methyltransferase)) EUB0000272b SETDB1.
Data set [9] deals with Serine/threonine-protein kinase PAK 3 (Homo sapiens) (UniProt O75914). In words: Selectivity interaction (SelectScreen profiling (Invitrogen)) EUB0000607a PAK3. The conditions noted are these: at 2 µM.
Serine/threonine-protein kinase PAK 3 (Homo sapiens), sequence (O75914 whole entry, looked up): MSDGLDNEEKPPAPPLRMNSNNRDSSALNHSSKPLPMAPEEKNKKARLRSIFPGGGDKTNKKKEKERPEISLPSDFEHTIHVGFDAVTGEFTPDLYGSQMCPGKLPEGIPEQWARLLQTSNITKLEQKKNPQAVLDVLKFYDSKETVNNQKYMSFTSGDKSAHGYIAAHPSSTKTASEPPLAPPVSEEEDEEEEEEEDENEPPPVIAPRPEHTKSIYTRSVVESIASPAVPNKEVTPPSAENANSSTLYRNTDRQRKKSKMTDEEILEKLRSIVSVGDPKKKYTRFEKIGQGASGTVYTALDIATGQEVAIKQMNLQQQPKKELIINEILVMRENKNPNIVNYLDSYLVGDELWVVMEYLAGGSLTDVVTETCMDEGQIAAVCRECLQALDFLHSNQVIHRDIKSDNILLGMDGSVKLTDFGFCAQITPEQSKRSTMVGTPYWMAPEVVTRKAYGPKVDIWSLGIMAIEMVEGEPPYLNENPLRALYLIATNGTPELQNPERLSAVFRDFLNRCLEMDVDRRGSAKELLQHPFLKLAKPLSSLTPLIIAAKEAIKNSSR
The target of data set [10] is T1, Ribosomal protein S6 kinase alpha-3. In words: Selectivity interaction (ActivX KiNativ screen (kinase selectivity in THP-1 cell lysates)) EUB0000639a RPS6KA3. The class given is subcellular. Particulars: lysate, at 1 µM.
Data set [11] deals with Interferon-induced, double-stranded RNA-activated protein kinase (Homo sapiens) (UniProt P19525). In words: Selectivity interaction (ActivX KiNativ screen (kinase selectivity in THP-1 cell lysates)) EUB0000639a EIF2AK2. The class given is subcellular. Particulars: lysate, at 0.01 µM.
Interferon-induced, double-stranded RNA-activated protein kinase (Homo sapiens), sequence (P19525 whole entry): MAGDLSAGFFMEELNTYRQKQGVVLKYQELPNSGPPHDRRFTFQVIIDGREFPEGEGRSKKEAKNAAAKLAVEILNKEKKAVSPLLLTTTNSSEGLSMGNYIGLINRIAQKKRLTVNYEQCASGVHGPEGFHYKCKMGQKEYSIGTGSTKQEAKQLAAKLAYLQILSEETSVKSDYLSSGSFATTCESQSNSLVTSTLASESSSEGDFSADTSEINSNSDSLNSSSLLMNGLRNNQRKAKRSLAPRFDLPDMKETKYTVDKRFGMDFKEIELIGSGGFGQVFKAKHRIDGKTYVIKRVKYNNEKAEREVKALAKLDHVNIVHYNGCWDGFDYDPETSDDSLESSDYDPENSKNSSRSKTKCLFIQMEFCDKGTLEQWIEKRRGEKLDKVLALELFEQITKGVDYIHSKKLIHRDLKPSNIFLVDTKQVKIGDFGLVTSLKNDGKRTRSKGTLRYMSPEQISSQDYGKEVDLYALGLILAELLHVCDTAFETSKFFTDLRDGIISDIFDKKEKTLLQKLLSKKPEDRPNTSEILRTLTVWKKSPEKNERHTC
In data set [12] the target is Serine/threonine-protein kinase tousled-like 2 (Homo sapiens) (UniProt Q86UE8). In words: Selectivity interaction (ActivX KiNativ screen (ex vivo kinase selectivity in human PBMCs)) EUB0001619a TLK2. The class given is cell-based. The conditions noted are these: PBMC, at 1 µM.
Serine/threonine-protein kinase tousled-like 2 (Homo sapiens), sequence (Q86UE8 whole entry, looked up): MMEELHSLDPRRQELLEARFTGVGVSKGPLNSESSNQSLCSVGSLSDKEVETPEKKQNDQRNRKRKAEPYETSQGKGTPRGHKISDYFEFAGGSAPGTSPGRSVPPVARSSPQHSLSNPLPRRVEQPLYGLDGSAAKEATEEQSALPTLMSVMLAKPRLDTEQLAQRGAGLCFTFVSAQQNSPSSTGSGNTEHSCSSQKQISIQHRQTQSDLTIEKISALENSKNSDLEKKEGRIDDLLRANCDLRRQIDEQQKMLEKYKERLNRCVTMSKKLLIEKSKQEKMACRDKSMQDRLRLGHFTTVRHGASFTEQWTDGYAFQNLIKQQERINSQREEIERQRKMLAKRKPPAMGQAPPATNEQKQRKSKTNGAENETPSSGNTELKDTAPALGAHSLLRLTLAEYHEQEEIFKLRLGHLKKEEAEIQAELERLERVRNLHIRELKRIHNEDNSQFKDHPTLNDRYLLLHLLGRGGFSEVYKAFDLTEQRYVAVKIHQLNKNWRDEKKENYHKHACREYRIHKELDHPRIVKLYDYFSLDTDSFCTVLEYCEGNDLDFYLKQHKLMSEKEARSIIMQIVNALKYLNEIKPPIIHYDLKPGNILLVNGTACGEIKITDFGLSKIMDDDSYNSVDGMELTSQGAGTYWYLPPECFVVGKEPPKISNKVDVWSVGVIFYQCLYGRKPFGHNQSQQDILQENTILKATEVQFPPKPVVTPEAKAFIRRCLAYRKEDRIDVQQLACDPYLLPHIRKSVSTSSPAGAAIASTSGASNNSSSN
In another data set the target is MAO-A (MAOA) (Homo sapiens, UniProt P21397). In words: Selectivity interaction (Safety Panel 44tm (Eurofins)) EUB0000162b MAOA. Particulars: at 10 µM, read-out: % of control.
MAO-A (MAOA), sequence (P21397 whole entry): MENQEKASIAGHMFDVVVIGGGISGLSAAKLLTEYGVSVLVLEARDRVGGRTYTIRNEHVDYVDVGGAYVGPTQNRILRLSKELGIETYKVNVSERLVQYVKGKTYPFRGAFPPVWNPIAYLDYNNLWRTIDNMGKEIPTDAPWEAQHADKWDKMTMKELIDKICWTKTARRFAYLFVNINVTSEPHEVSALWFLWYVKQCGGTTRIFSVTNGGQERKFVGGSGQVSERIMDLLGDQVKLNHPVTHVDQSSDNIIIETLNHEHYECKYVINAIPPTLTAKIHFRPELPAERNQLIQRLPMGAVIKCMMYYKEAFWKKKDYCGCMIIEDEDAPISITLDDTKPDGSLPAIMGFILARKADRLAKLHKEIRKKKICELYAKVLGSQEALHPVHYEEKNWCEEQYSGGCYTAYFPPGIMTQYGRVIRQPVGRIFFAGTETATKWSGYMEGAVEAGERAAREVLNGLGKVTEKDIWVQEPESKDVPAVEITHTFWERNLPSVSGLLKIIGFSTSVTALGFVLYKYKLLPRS
Data set [13] concerns the target Glycogen synthase kinase-3 alpha (Homo sapiens, UniProt P49840). In words: Selectivity interaction (KinomeScan (DiscoverX)) EUB0000618a GSK3A. The conditions noted are these: at 10 µM.

T1 sequence (P51812 whole entry): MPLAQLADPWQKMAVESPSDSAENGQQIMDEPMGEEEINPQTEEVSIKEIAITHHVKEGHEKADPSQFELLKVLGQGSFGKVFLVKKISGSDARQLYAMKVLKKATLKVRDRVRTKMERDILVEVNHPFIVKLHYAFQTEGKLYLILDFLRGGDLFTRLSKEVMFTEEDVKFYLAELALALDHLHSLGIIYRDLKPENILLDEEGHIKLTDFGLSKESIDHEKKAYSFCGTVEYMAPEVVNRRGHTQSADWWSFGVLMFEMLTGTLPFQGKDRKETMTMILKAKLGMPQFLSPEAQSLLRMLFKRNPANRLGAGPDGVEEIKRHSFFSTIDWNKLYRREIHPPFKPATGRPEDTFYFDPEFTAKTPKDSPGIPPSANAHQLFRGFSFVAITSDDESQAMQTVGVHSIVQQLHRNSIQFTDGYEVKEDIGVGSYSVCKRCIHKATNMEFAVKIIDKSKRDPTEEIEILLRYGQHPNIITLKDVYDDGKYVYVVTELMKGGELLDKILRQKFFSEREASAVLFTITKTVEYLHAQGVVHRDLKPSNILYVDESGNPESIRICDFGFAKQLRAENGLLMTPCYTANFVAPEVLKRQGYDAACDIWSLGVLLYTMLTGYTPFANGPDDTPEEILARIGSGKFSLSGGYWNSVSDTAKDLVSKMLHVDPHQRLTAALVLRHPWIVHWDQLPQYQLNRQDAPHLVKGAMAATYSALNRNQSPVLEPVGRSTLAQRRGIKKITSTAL

As for `Cc1ccc(-c2ccc3c(ccc4sc5c(c43)NC[C@@H](C)NC5=O)n2)cn1`, in data set [1], the % of inhibition stood at 27%.

Consider `Cc1cc([C@@H](C)Nc2ccccc2C(=O)O)c2nc(N3CCOCC3)cc(=O)n2c1` [AZD-6482], for which the % of control in data set [2] turned out to be 92%.

As for `Nc1cnc(N2CCc3cc(S(=O)(=O)Nc4c(F)cc(Cl)cc4F)cc(N4CCCC4=O)c32)nc1` [TP-020n], in [3], the IC50 is 530 nM. For the same compound, the % of control in data set [4] came to 100%. The % of inhibition at Histamine H3 receptor was -1.21%.

As for `COc1cc(Nc2nc(C)cc(-c3cnn4nc(OC)ccc34)n2)cc(C(F)(F)F)c1`, the % of control in data set [5] was 75%.

`CN(C)CCOc1ccc(-c2nc(-c3ccncc3)c(-c3ccc4c(c3)CC/C4=N\O)[nH]2)cc1` showed a % of control in data set [6] of 0.6%.

As for `O=C(NOC[C@H](O)CO)c1ccc(F)c(F)c1Nc1ccc(I)cc1F`, in data set [7], the % of control worked out at 80%.

On to `Cc1cc(C)cc([C@H]2c3cc(C)ccc3NC(=O)CN2C(=O)c2ccc(Br)s2)c1`, for which the figures for the % of activity in data set [8] (at 1 µM) and in data set [8] (at 10 µM) were 103% and 104%, respectively.

`CNC(=O)Nc1ccc(-c2nc(N3CC4CCC(C3)O4)c3cnn(C4CCC5(CC4)OCCO5)c3n2)cc1`: the % of inhibition in data set [9] worked out at 1%.

For `CC[C@@H]1[C@H](F)C(=O)N[C@@H]1COc1nccc2cc(C(N)=O)c(OC)cc12` [ZIMLOVISERTIB], the % of inhibition was -8.2% in data set [10] and -1.7% in [11].

On to `N#Cc1cccc(-c2c[nH]c3ncnc(N4CCOCC4)c23)c1`, for which the % of inhibition in data set [12] was -21%.

Regarding `CN(C)C(=O)Cn1cc(-c2ccc(-c3cncc4ccccc34)cc2)cn1`, the activity at MAO-A (MAOA) came out at 30%.

Consider `O[C@H]1CC[C@H](Nc2ncc3nc(Nc4c(F)cc(F)cc4F)n([C@H]4CCOC4)c3n2)CC1`, for which, in data set [13], the % of control worked out at 90%.

The values are drawn from ChEMBL document CHEMBL5465560, “Selectivity Literature for EUbOPEN Chemogenomic Library” (2024).
